Like-named read-outs stand apart in the source and are kept apart here.
Legend:
[1] = test system: 8E51 Cells permanently infected with LAV (Lymphotropic Adenopathy Virus) and MOLT3 cells; experiment: Antiviral activity: syncytia formation inhibition (8E51 cells infected with LAV co-incubated with MOLT3 cells); assay type: cell-based; conditions: Homo sapiens, MOLT-3
Method: The antiviral activity of the compound of the invention was evaluated by the test of the syncytia formation inhibition, according to the procedure reported hereinbelow.
8E51 Cells permanently infected with LAV (Lymphotropic Adenopathy Virus) defective of the po1 gene, and MOLT3 cells (CD4+ human T-lymphoblastoid strain), cultured in RPMI 1640 medium with 10% calf fetal serum were co-incubated in a ratio of 1:2, at a concentration of 10^6 cells/ml, and put in 96-conic shaped bottom wells Microtiter plates. The cells were added with some compounds representative of the invention suitably diluted and, after 30 minutes at 37° C., the whole was centrifuged to obtain a sediment. The […] was incubated for further 2 hours at 37° C., then put in square-bottomed wells. The syncytia (10-100 times bigger than the starting cells) were counted with an optic microscope. In the controls about 100-200 syncytia/well could be seen.

[2] = test system: human TNF (Tumor Necrosis Factor) citotoxicity on LM cells (murine fibroblast strain); experiment: In vitro anti-inflammatory activity: inhibition of the citotoxicity induced by human TNF on a murine fibroblast strain (LM cells, MTT); assay type: cell-based; conditions: Mus musculus; for inhibition at 100 µg/mL: compound 100 μg/ml; for inhibition at 10 µg/mL: compound 10 μg/ml
Method: In vitro anti-inflammatory activity
In a 96-square bottomed wells plate 15.000 LM cells (Rubin. B. Y. et al., J.Exp. Med., 162:1099, 1985) were inseminated each well (100 μl) in complete RPMI medium (Flow Lab., Hertz. GB). Each well was added with 50 μl of a solution of a compound to be tested at the due concentration, and 50 μl of a solution of TNF at the due concentration. After 2 days, each well was added with 40 μl of a solution of MTT [3-(4,5-dimethylthiazol-2-yl)-2,5-diphenyltetrazolium bromide], and the whole was incubated at 37° C. for 4 hours, then the content of the wells was sucked up, added with 200 μl/well of dimethylsulfoxide to dissolve the blue crystals of formazane formed because of the cell activity, then the optical density values were read by a reader with a 570 nm filter. […] The optical density values are directly proportional to the inhibitory activity performed by the compounds of the invention against TNF.

[3] = test system: Carrageenan-induced oedema; experiment: Carrageenan-induced oedema (acute inflammation); assay type: in vivo; conditions: oral; for % of inhibition (reduction of the oedema), 1 hour: 1 hour after carrageenan; for % of inhibition (reduction of the oedema), 3 hours: 3 hours after carrageenan; for % of inhibition (reduction of the oedema), 5 hours: 5 hours after carrageenan
Method: In vivo anti-inflammatory activity: models of acute inflammation
A. Carrageenan-induced oedema The test is disclosed, inter alia, by Blake, D. R. et al., Ann. Rheum. Dis., 43, 89-93, 1983. The animals were orally administered with 10 or 30 mg/kg doses of the compounds of the invention 1 hour before the injection of carrageenan. The condition of the oedema was checked 1, 3 and 5 hours after said injection. In Table 3 the percentage of reduction of the oedema is set forth.

[4] = TNF 1 ng/ml, read-out: % of inhibition, TNF (1 ng/ml)
[5] = TNF 5 ng/ml, read-out: % of inhibition, TNF (5 ng/ml)

SMILES	inhibition at 50 µM [1] [%]	inhibition at 100 µM [1] [%]	inhibition at 100 µg/mL [2, 4] [%]	inhibition at 10 µg/mL [2, 4] [%]	inhibition at 10 µg/mL [2, 5] [%]	inhibition at 100 µg/mL [2, 5] [%]	also measured
CCCCN(CCCC)[C@@H]1CCCC[C@H]1OC(=O)OCc1cccnc1 (relative stereo) [4, C]]	18	28	23	–	–	–	–
CCCCN1CCC(COC(=O)OCC2CCN(CCCC)CC2)CC1 [1, E]]	70	79	–	45	–	–	inhibition at 25 µM [1]: 56.5%; inhibition at 200 µM ([1]; 200 μM): 97%
CCCCN(CCCC)[C@@H]1CCCC[C@H]1OC(=O)OCC1CCCN(C)C1 (stereo partly drawn) [5, C]]	22	23	36	73	21	30	–
CCCCN(CCCC)CCC(C)OC(=O)OC(C)CCN(CCCC)CCCC (stereo not drawn) [8, D]]	55	27	100	100	56	82	inhibition at 12.5 µM ([1]; 12.5 μM): 33%; inhibition at 25 µM [1]: 49%
CCCCN(CCCC)CCCC(C)OC(=O)OC(C)CCCN(CCCC)CCCC (stereo not drawn) [10, C]]	45.5	–	100	100	73	95	inhibition at 25 µM [1]: 29.5%; % of inhibition (reduction of the oedema), 1 hour ([3]; 10 mg/kg): 26.1%; % of inhibition (reduction of the oedema), 3 hours ([3]; 10 mg/kg): 10%; % of inhibition (reduction of the oedema), 1 hour ([3]; 30 mg/kg): 13%; % of inhibition (reduction of the oedema), 3 hours ([3]; 30 mg/kg): 43%; % of inhibition (reduction of the oedema), 5 hours ([3]; 30 mg/kg): 31.3%
CCCCN(CCCC)CCCOC(=O)OC(C)CCCN(CCCC)CCCC (stereo not drawn) [12, B]]	–	–	65	68	50	62	–
CCN(CC)CCCCCCOC(=O)OCCCCCCN(CC)CC [13, E]]	27.5	43.5	45	55	–	21	–
CCCCN(CCCC)CCCCCOC(=O)OCCCCCN(CCCC)CCCC [14, E]]	–	–	100	–	–	59	–
CN(CCCOC(=O)OCCCN(C)Cc1ccccc1)Cc1ccccc1 [16, D]]	–	27	–	–	–	21	–
O=C(OCCCN(Cc1ccccc1)Cc1ccccc1)OCCCN(Cc1ccccc1)Cc1ccccc1 [17, D]]	–	19	–	–	–	–	–
CC(C)N(CCCCOC(=O)OCCCCN(C(C)C)C(C)C)C(C)C [18, D]]	55	63	17	–	–	–	% of inhibition (reduction of the oedema), 3 hours ([3]; 30 mg/kg): 27%; % of inhibition (reduction of the oedema), 5 hours ([3]; 30 mg/kg): 28.7%
CCCCN(CCCC)CCCOC(=O)OCCCN(CCCC)CCCC [19, D]]	–	–	48	17	–	–	–
CCCCN(CCCC)CCCC(CC)OC(=O)OC(CC)CCCN(CCCC)CCCC (stereo not drawn) [38, E]]	–	–	–	–	–	–	% of inhibition (reduction of the oedema), 1 hour ([3]; 10 mg/kg): 22.5%; % of inhibition (reduction of the oedema), 3 hours ([3]; 10 mg/kg): 15%; % of inhibition (reduction of the oedema), 5 hours ([3]; 10 mg/kg): 20.5%

— US5827881A, “Diesters of carbonic acid endowed with antiviral and anti-inflammatory activity” (Italfarmaco S.P.A., priority 1994, dated 1998)
